Assay results from patent US20250302846A1, “ANTIBIOTIC COMPOSITION AND METHODS OF USE THEREOF” (THE REGENTS OF THE UNIVERSITY OF COLORADO A BODY CORPORATE, priority 2022, published 2025).
Where “and” joins values, the source holds several entries; their conditions need not be identical. Equal values may be shown once. Read-outs that look alike come from different tables or passages of the source.

Columns and labels:
Format in all cases: cell-based
[1] = test system: S. Typhimurium SL1344 or 14028 in HeLa cells; test: CFU assay in infected HeLa cells
Description: FIG. 1A-D. D66 is a small molecule that prevents S. Typhimurium replication and/or survival in macrophages. A). Structure of D66. B) RAW264.7 macrophage-like cells were infected with S. Typhimurium harboring a chromosomal sifB: : gfp reporter, treated with DMSO or D66 at two hours after infection, and monitored for bacterial accumulation (GFP+Macrophage Area) over 16 hours using the SAFIRE (Screen for Anti-infectives using Fluorescence microscopy of Intracellular Enterobacteriaceae) assay. The IC50 value is indicated. Mean and SD of biological duplicates with technical duplicates across 9 dilutions of D66. C, D) CFU assays were performed with RAW264.7 or HeLa cells infected with S. Typhimurium SL1344 or 14028 for two hours and treated for 16 hours with DMSO or 1.5-fold dilutions of D66, prior to lysis and plating for CFU. Symbols on the Y-axes are the CFU value from DMSO-treated samples. The IC50 values are indicated. Mean and SEMs of biological triplicates with technical duplicates across 8 dilutions of D66.
CFU assays were performed with RAW 264.7 cells seeded as above or with Hela cells (ATCC CCL-2) seeded at 1x10^4 cells per 96-well. Cells were infected as described above with either S. Typhimurium SL1344 or 14028, as indicated at an approximate MOI of 30 bacteria per RAW 264.7 cell and 150 bacteria per HeLa cell. Plates were centrifuged and gentamicin treated as above. […]

[2] = test system: E. coli (K-12); test: Minimum inhibitory concentration determination in broth; settings: for MIC50: Escherichia coli
Description: (§1) Bacterial Strains: S. Typhimurium (SL1344), S. Typhimurium (14028s, ATCC), S. Typhimurium ΔacrAB (ALR1257), E. coli (K-12 derivative BW25113 (wild-type)), E. coli K-12 AtolC (JP313 delta tolC; also called AD3644 and JLD1285).
(§2) Minimum inhibitory concentration determination: Overnight LB-grown cultures were diluted in LB or MHB to an optical density (OD600) of 0.01 and distributed into polystyrene 96-well flat-bottom plates (Greiner, 655185). […] The final DMSO concentration was at or below 2%. Where indicated, PMB [0.5 μg/mL] was added prior to D66. Plates were grown at 37° C. with shaking and OD600 was monitored (BioTek Synergy H1 or BioTek Eon). MICs were defined as the concentration at which 95% of growth was inhibited (OD600).

[3] = test system: E. coli K-12 ΔtolC; test: as above; settings: for MIC50: Escherichia coli
Description: as §1, §2

[4] = test system: S. Typhimurium ΔacrAB; test: as above; settings: for MIC50: Salmonella enterica, TYPHIMURIUM
Description: as §1, §2

[5] = test system: S. Typhimurium; test: Bacterial membrane potential assay with DiSC3(5); settings: mid-log cells in LB with PMB [0.5 μg/mL]; corrected for quenching by D66; JD1 [70 μM]
Description: (§3) FIG. 3A-F. D66 rapidly perturbs the bacterial cytoplasmic membrane with minor disruption of barrier function. Mid-log phase S. Typhimurium cells grown in LB with 0.5 μg/mL PMB were used for all experiments. A) Cell membrane potential was monitored with the fluorescent dye DiSC3 (5). Cells were treated at time 0 with DMSO, JD1 [70 μM], or D66. Data were normalized to DMSO at time 0 and corrected for the quenching effect of D66 (FIG. 6A, B) B) Cell membrane permeability was monitored by PI fluorescence. Cells were treated at time 0 with DMSO, SDS [0.005%] or D66. Samples were processed at the time points shown. A one-way ANOVA with a Dunnet's multiple comparison test, * P<0.005. C-F) Growth curves and kill-curves of cells treated at time 0 with either DMSO or D66. Culture aliquots were monitored for OD600 (C, E) or plated for enumeration of CFU (D, F). Data are presented as fold change. Mean and SEM of three biological replicates with technical triplicates are shown in all panels.
Bacterial Membrane potential assays: Membrane potential was measured using the potentiometric fluorescent probe DiSC3 (5) (Invitrogen). Mid-log phase cells were diluted to an OD600 of 0.4. […] Plates were monitored (ex650/em680 nm) on a BioTek Synergy H1 plate reader. After baseline fluorescence was recorded, compound was added to the desired final concentration and measurements were recorded for an additional 30 minutes. […]

[6] = test system: S. Typhimurium; test: Growth curves and kill curves; settings: outer-membrane perturbing conditions, D66 at 2x MIC, LB or MHB, 18 hours
Description: as §3
Growth curves and kill curves: Mid-log phase cultures were sampled at time 0 and then compound or vehicle control (DMSO) was added. Cultures were incubated at 37° C. with agitation. At the time intervals indicated, aliquots were monitored for OD600 and plated for CFU enumeration. Data for OD600 and CFU/mL were normalized to time 0.

Question: With `O=C(Nc1cc(Cl)cc(Cl)c1)N1CCCN(Cc2ccccc2)CC1` [D66] as the compound, how does the “ability to reduce bacterial load in Hela cells” value [1] read?
Answer: The value was “little effect”.

Question: And the “reduction in CFU” value [1]?
Answer: The value was 5-10 fold.

Question: What about the MIC50 ([2]; LB, read-out: MIC50 in LB) of the same compound?
Answer: Its MIC50 is > 150 µM and > 57 µg/mL.

Question: And the MIC50 ([2]; MHB, read-out: MIC50 in MHB)?
Answer: Its MIC50 is > 150 µM.

Question: And the “cMIC95 in LB” value ([2]; LB)?
Answer: Its value is >150 µM.

Question: What about the “cMIC95 in MHB” value ([2]; MHB) of the same compound?
Answer: The value was >150 µM.

Question: What about the “cMIC95 in LB” value ([3]; E. coli K-12 ΔtolC, LB) of the same compound?
Answer: Its value is 52 µM.

Question: What about the “cMIC95 in MHB” value ([3]; E. coli K-12 ΔtolC, MHB) of the same compound?
Answer: The value was 43 µM.

Question: What about the MIC50 ([3]; read-out: MIC50 in LB) of the same compound?
Answer: The MIC50 was 47 µM and 18 µg/mL.

Question: And the MIC50 ([3]; read-out: MIC50 in MHB)?
Answer: The MIC50 was 36 ± 1 µM.

Question: And the “cMIC95 in LB” value ([4]; S. Typhimurium ΔacrAB, LB)?
Answer: Its value is 142 µM.

Question: What about the “cMIC95 in MHB” value ([4]; S. Typhimurium ΔacrAB, MHB) of the same compound?
Answer: Its value is 116 µM.

Question: What about the MIC50 ([4]; read-out: MIC50 in LB) of the same compound?
Answer: Its MIC50 is 128 µM and 48 µg/mL.

Question: And the MIC50 ([4]; read-out: MIC50 in MHB)?
Answer: Its MIC50 is 81 ± 6 µM.

Question: What about the “DiSC3(5) fluorescence (membrane voltage)” value [5] of the same compound?
Answer: Its value is “rapidly increased the fluorescence of DiSC3 (5) in a dose-dependent manner”.

Question: And the “absorbance and CFU of bacteria (cell lysis)” value [6]?
Answer: Its value is “did not reduce the absorbance nor the CFU of bacteria”.
